Data from patent US12091425B2 (AMGEN INC., priority 2016, dated 2024).

How the values were obtained:
[1] = system: OPM-2 human multiple myeloma cell line; assay: Cell Viability Assay (OPM-2 10 FBS); format: cell-based; settings: OPM-2 cells, CellTiter-Glo
Method in brief: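 IC50 from 4-parameter logistic fit of CellTiter-Glo luminescence. 3000 cells/well, 10% FBS medium, serial compound dilutions, 16 h, 37 °C/5% CO2; read 25 min post-reagent.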

[2] = target: T1, Mcl-1/Bim interaction, recombinant human Mcl-1 (171-327) (Homo sapiens, UniProt Q07820); assay: Cell free Mcl-1: Bim Affinity Assay (Mcl-1 HTRF); format: binding
T1 construct: made in house
T1 sequence (Q07820 171-327): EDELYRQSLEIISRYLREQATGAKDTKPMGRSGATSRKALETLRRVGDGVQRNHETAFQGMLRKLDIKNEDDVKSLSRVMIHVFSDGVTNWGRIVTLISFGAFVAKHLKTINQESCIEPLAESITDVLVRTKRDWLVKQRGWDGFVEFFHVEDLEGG
Method in brief: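 Read-out is time-resolved FRET after overnight incubation, using a biotin-labelled peptide from human Bim (51-76) as the binding partner; IC50 was derived from competition curves.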

[3] = TR-FRET, 0.1 nM Mcl-1 (171-327), 0.05 nM biotin-Bim (51-76)
[4] = Homo sapiens, OPM-2, 16 h, 16 h
[5] = cell free Mcl-1:Bim TR-FRET, recombinant human Mcl-1 (171-327)
[6] = Homo sapiens, OPM-2, 16 h, 16 h incubation

IC50 [2, 3] [nM] | IC50 [1, 4] [nM] | Structure (SMILES) | IC50 ([1]; 16 h) [nM] | IC50 [2, 5] [nM] | further results
0.36 | 27600 | C[C@@H]1[C@@H](C)C/C=C/[C@H](OCC(=O)O)[C@@H]2CC[C@H]2CN2C[C@@]3(CCCc4cc(Cl)ccc43)COc3cc(CC(=O)O)c(cc32)C(=O)NS1(=O)=O [Example 293, ((1S,3′R,6′R,7′S,8′E,11′S,12′R)-7′-(carboxymethoxy)-6-chloro-11′,12′-dimethyl-13′,13′-dioxido-15′-oxo-3,4-dihydro-2H-spiro[naphthalene-1,22′-[20]oxa[13]thia[1,14]diazatetracyclo[14.7.2.0^3,6.0^19,24]pentacosa [8,16,18,24]tetraen]-17′-yl)acetic acid] | – | – | –
0.185 | 220 | C[C@@H]1[C@@H](C)C/C=C/[C@H](OCC(=O)N2CCOCC2)[C@@H]2CC[C@H]2CN2C[C@@]3(CCCc4cc(Cl)ccc43)COc3ccc(cc32)C(=O)NS1(=O)=O [Example 313, (1S,3′R,6′R,7′S,8′E,11′S,12′R)-6-chloro-11′,12′-dimethyl-7′-(2-(4-morpholinyl)-2-oxoethoxy)-3,4-dihydro-2H,15′H-spiro[naphthalene-1,22′-[20]oxa[13]thia[1,14]diazatetracyclo[14.7.2.0^3,6.0^19,24]pentacos [8,16,18,24]tetraen]-15′-one 13′,13′-dioxide] | – | – | –
– | – | COC[C@@H](O)C[C@@H]1[C@@H](C)C/C=C/[C@H](O)[C@@H]2CC[C@H]2CN2C[C@@]3(CCCc4cc(Cl)ccc43)COc3ccc(cc32)C(=O)NS1(=O)=O (single isomer, unassigned) [Example 672] | 286 | 0.193 | –
2.01 | – | CC[C@@H]1CCCC[C@H](OCC(=O)OC)[C@@H]2CC[C@H]2CN2C[C@@]3(CCCc4cc(Cl)ccc43)COc3ccc(cc32)C(=O)NS1(=O)=O [Example 993, methyl (((1S,3′R,6′R,7′S,12′R)-6-chloro-12′-ethyl-13′,13′-dioxido-15′-oxo-3,4-dihydro-2H-spiro[naphthalene-1,22′-[20]oxa[13]thia[1,14]diazatetracyclo[14.7.2.0^3,6.0^19,24]pentacosa [16,18,24]trien]-7′-yl)oxy)acetate] | – | – | IC50 [1, 6]: 373 nM
– | 727 | Cc1nc(CN(Cc2noc(C)n2)[C@H]2/C=C/CC[C@@H](C)S(=O)(=O)NC(=O)c3ccc4c(c3)N(C[C@@H]3CC[C@H]32)C[C@@]2(CCCc3cc(Cl)ccc32)CO4)no1 [Example 602, (1S,3′R,6′R,7′S,8′E,12′R)-7′-(bis((5-methyl-1,2,4-oxadiazol-3-yl)methyl)amino)-6-chloro-12′-methyl-3,4-dihydro-2H,15′H-spiro[naphthalene-1,22′-[20]oxa[13]thia[1,14]diazatetracyclo[14.7.2.0^3,6.0^19,24]pentacosa [8,16,18,24]tetraen]-15′-one 13′,13′-dioxide] | – | 1.74 | –
3.93 | 1810 | C[C@@H]1C/C=C\[C@H](O)[C@@H]2CC[C@H]2CN2C[C@@]3(CCCc4cc(Cl)ccc43)COc3ccc(cc32)C(=O)NS(=O)(=O)N1C[C@@H]1CCCO1 (single isomer, unassigned) [Example 52] | – | – | –
4.85 | – | C[C@H]1CCCS(=O)(=O)NC(=O)c2ccc3c(c2)N(C[C@@H]2CC[C@H]2[C@@H](O)C1)C[C@@]1(CCCc2cc(Cl)ccc21)CO3 (single isomer, unassigned) [Example 241] | 7390 | – | –
– | – | CC[C@@H]1[C@@H](OCCOC)C/C=C/[C@H](O)[C@@H]2CC[C@H]2CN2C[C@@]3(CCCc4cc(Cl)ccc43)COc3ccc(cc32)C(=O)NS1(=O)=O (single isomer, unassigned) [Example 470] | 355 | 0.726 | –
2.62 | 3160 | C[C@@H]1C/C=C/[C@H](O)[C@@H]2CC[C@H]2CN2C[C@@]3(CCCc4cc(Cl)ccc43)COc3ccc(cc32)C(=O)NS(=O)(=O)N1 [Example 71, (1S,3′R,6′R,7′S,8′E,11R)-6-chloro-7′-hydroxy-11′-methyl-3,4-dihydro-2H,15′H-spiro[naphthalene-1,22′-[20]oxa[13]thia[1,12,14]triazatetracyclo[14.7.2.0^3,6.0^19,24]pentacosa[8,16,18,24]tetraen]-15′-one 13′,13′-dioxide] | – | – | –
0.589 | – | CCOC(=O)CO[C@H]1/C=C/[C@H](C)[C@H](C)[C@@H](C)S(=O)(=O)NC(=O)c2ccc3c(c2)N(C[C@@H]2CC[C@H]21)C[C@@]1(CCCc2cc(Cl)ccc21)CO3 [Example 1050, ethyl (((1S,3′R,6′R,7′S,8′E,10′S,11′S,12′R)-6-chloro-10′,11′,12′-trimethyl-13′,13′-dioxido-15′-oxo-3,4-dihydro-2H-spiro[naphthalene-1,22′-[20]oxa[13]thia[1,14]diazatetracyclo[14.7.2.0^3,6.0^19,24]pentacosa [8,16,18,24]tetraen]-7′-yl)oxy)acetate] | – | – | IC50 [1, 6]: 288 nM
– | 117 | C[C@@H]1[C@@H](C)C/C=C/[C@H](OCCN2CCC2=O)[C@@H]2CC[C@H]2CN2C[C@@]3(CCCc4cc(Cl)ccc43)COc3ccc(cc32)C(=O)NS1(=O)=O [Example 731, (1S,3′R,6′R,7′S,8′E,11′S,12′R)-6-chloro-11′,12′-dimethyl-7′-(2-(2-oxo-1-azetedinyl)ethoxy)-3,4-dihydro-2H,15′H-spiro[naphthalene-1,22′-[20]oxa[13]thia[1,14]diazatetracyclo[14.7.2.0^3,6.0^19,24]pentacosa [8,16,18,24]tetraen]-15′-one-13′, 13′-dioxide] | – | 0.301 | –
– | 1140 | CC[C@@H]1CC/C=C/[C@H](OC(N)=O)[C@@H]2CC[C@H]2CN2C[C@@]3(CCCc4cc(Cl)ccc43)COc3ccc(cc32)C(=O)NS1(=O)=O [Example 610, (1S,3′R,6′R,7′S,8′E,12′R)-6-chloro-12′-ethyl-13′,13′-dioxido-15′-oxo-3,4-dihydro-2H-spiro[naphthalene-1,22′-[20]oxa[13]thia[1,14]diazatetracyclo[14.7.2.0^3,6.0^19,24]pentacosa [8,16,18,24]tetraen]-7′-yl carbamate] | – | 0.923 | –
0.211 | – | CCC1C(C)C(C)C=CC(O)C2CCC2CN2CC3(CCCc4cc(Cl)ccc43)COc3ccc(cc32)C(=O)NS1(=O)=O (single isomer, unassigned) [Example 1054] | – | – | IC50 ([1]; 16 h incubation): 101 nM
– | – | CC(C)OC(=O)CC1C(C)CC=CC(O)C2CCC2CN2CC3(CCCc4cc(Cl)ccc43)COc3ccc(cc32)C(=O)NS1(=O)=O (single isomer, unassigned) [Example 567] | 4510 | 3.69 | –
1.19 | – | CO[C@H]1/C=C/[C@@H](C)[C@H](C)[C@@H](C)S(=O)(=O)NC(=O)c2ccc3c(c2)N(C[C@@H]2CC[C@H]21)C[C@@]1(CCCc2cc(Cl)ccc21)CO3 [Example 1053, (1S,3′R,6′R,7′S,8′E,10′R,11′S,12′R)-6-chloro-7′-methoxy-10′,11′,12′-trimethyl-3,4-dihydro-2H,15′H-spiro[naphthalene-1,22′-[20]oxa[13]thia[1,14]diazatetracyclo[14.7.2.0^3,6.0^19,24]pentacosa [8,16,18,24]tetraen]-15′-one 13′,13′-dioxide] | – | – | IC50 [1, 6]: 1480 nM
– | – | COC(C)COC1C=CCC(C)C(C)S(=O)(=O)NC(=O)c2ccc3c(c2)N(CC2CCC21)CC1(CCCc2cc(Cl)ccc21)CO3 (mixture of isomers) [Example 519] | 339 | 1.44 | –
1.44 | – | C[C@H]1/C=C/[C@H](O)[C@@H]2CC[C@H]2CN2C[C@@]3(CCCc4cc(Cl)ccc43)COc3ccc(cc32)C(=O)NS(=O)(=O)C1 (single isomer, unassigned) [Example 164] | 21900 | – | –
0.0197 | – | C[C@@H]1[C@@H](C)S(=O)(=O)NC(=O)c2ccc3c(c2)N(C[C@@H]2CC[C@H]2[C@@H](OCC(=O)O)/C=C/[C@@H]1C)C[C@@]1(CCCc2cc(Cl)ccc21)CO3 [Example 1051, (((1S,3′R,6′R,7′S,8′E,10′S,11′S,12′R)-6-chloro-10′,11′,12′-trimethyl-13′,13′-dioxido-15′-oxo-3,4-dihydro-2H-spiro[naphthalene-1,22′-[20]oxa[13]thia[1,14]diazatetracyclo[14.7.2.0^3,6.0^19,24]pentacosa [8,16,18,24]tetraen]-7′-yl)oxy)acetic Acid] | – | – | IC50 [1, 6]: 1900 nM
0.259 | 130 | C[C@H]1C/C=C\[C@H](O)[C@@H]2CC[C@H]2CN2C[C@@]3(CCCc4cc(Cl)ccc43)COc3ccc(cc32)C(=O)NS(=O)(=O)[C@H]1C[C@H]1CCCO1 (single isomer, unassigned) [Example 136] | – | – | –
– | – | COCCO[C@H]1/C=C/C[C@H](C)[C@@H](CC(F)(F)F)S(=O)(=O)NC(=O)c2ccc3c(c2)N(C[C@@H]2CC[C@H]21)C[C@@]1(CCCc2cc(Cl)ccc21)CO3 (single isomer, unassigned) [Example 669] | 272 | 1.37 | –

Structure (SMILES) | IC50 [2, 3] [nM] | IC50 [1, 4] [nM] | IC50 ([1]; 16 h) [nM] | IC50 [2, 5] [nM] | further results
C[C@H]1C/C=C/[C@H](OCCN2CCOCC2)[C@@H]2CC[C@H]2CN2C[C@@]3(CCCc4cc(Cl)ccc43)COc3ccc(cc32)C(=O)NS(=O)(=O)[C@@H]1CC1CC1 (single isomer, unassigned) [Example 386] | 0.63 | – | 273 | – | –
CCOC[C@@H]1[C@@H](C)C/C=C/[C@H](O)[C@@H]2CC[C@H]2CN2C[C@@]3(CCCc4cc(Cl)ccc43)COc3ccc(cc32)C(=O)NS1(=O)=O (single isomer, unassigned) [Example 466] | 0.331 | – | 128 | – | –
O=C1NS(=O)(=O)[C@H](Cc2nccs2)CC/C=C\[C@H](O)[C@@H]2CC[C@H]2CN2C[C@@]3(CCCc4cc(Cl)ccc43)COc3ccc1cc32 (single isomer, unassigned) [Example 374] | 2.86 | – | 2940 | – | –
